Molecular target: Sentrin-specific protease 7 (Homo sapiens) (UniProt Q9BQF6)
Assay: SENP7 protease inhibitors, SAR follow-up, biochemical, luminescence, set 2 (AID 588600)
Conditions: recombinant SENP7, Z-RLRGG-aminoluciferin, 40 min

Chain of Sentrin-specific protease 7 (Homo sapiens) (Q9BQF6 706-1050 limits assumed): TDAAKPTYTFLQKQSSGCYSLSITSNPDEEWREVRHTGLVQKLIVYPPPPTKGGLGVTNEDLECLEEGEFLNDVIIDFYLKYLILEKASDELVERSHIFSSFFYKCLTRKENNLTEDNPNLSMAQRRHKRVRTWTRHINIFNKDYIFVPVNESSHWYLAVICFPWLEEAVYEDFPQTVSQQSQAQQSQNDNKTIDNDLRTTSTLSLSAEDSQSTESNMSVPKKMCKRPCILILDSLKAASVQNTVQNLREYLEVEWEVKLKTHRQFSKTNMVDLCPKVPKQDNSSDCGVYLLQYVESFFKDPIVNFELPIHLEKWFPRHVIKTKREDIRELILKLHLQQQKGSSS

IC50	SMILES
1650 nM	CN(C)c1ccc(/C=C/c2noc(-c3ccccc3O)n2)cc1
2080 nM	COc1ccccc1OCc1nc(-c2ccccc2Cl)no1
